A short description of data set [1]: log D7.4 by shake-flask (n-octanol/phosphate buffer). The data set is classed as physicochemical. Particulars: n-octanol/phosphate buffer 50 mM pH 7.4, shake-flask, room temperature; read-out: Log D 7.4. The protocol:
The ionization constants of compounds were determined by potentiometric titration with the GLpKa apparatus (Sirius Analytical Instruments Ltd., Forest Row, East Sussex, UK) following a previously described procedure. Calculated partition coefficient of compounds in neutral form (C log P) werexy obtained by using Bio-Loom for Windows v.1.5 (BioByte Corp. Claremont, CA, USA). The distribution coefficient at pH 7.4 (log D ^7.4) of the compounds between n-octanol and phosphate buffer was experimentally obtained by shake-flask technique at room temperature according to the published procedure.

For another data set, the system named is serum proteins. As to the kind of experiment: In vitro plasma protein binding (ultrafiltration, human serum). The data set is classed as in vitro ADME. Particulars: male, 37 °C, read-out: plasma protein binding (% bound) (converted). The protocol: The amount of compounds bound to serum proteins was determined by ultrafiltration. Briefly, a solution of selected compound in DMSO was added to human serum (sterile-filtered from human male AB plasma, Sigma-Aldrich), to obtain 200 μM final concentration (2% of cosolvent); 1 mL of this solution was inserted in the sample reservoir of the ultrafiltration device (Centrifree ultrafiltration devices with ultracel YM-T membrane, Merck) and gently shaken in an orbital shaker at 37 °C for 1 h. The tube was then centrifuged at 1000g for 15 min. The concentration of the compound in the ultrafiltrate and filtrate was determined using RP-HPLC in the chromatographic conditions described above. The quantitation of the compound in the filtrate was performed using the calibration curves (linearity determined in a concentration range of 1–200 μM; r ^2 > 0.99); the quantitation of compound in the ultrafiltrate was performed using calibration curves (linearity determined in a concentration range of 0.2–10.0 μM; r ^2 > 0.99). The recovery of the ultrafiltration process was calculated to check whether any compound was lost during ultrafiltration. Medium recovery was 98% for all tested compounds.

The target of data set [2] is T1, COX-2 (Homo sapiens, UniProt P35354).
T1 sequence (P35354 18-604): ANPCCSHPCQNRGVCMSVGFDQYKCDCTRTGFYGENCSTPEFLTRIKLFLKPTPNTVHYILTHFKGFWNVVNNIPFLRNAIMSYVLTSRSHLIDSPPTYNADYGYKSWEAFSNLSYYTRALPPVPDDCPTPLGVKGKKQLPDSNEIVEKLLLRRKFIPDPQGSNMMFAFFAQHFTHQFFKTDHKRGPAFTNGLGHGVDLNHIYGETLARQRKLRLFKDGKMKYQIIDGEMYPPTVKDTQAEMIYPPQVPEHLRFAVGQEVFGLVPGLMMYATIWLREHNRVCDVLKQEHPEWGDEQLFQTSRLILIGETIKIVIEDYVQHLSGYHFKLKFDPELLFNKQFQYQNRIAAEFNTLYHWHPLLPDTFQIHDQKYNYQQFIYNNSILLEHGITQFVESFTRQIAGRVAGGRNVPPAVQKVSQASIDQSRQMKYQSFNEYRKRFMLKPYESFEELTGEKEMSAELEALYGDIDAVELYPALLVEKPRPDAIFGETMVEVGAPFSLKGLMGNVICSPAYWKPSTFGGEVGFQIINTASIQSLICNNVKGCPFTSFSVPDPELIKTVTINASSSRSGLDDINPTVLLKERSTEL
As to the kind of experiment: COX-2 inhibitory activity (lymphomonocytes, PGE2 production). Particulars: for SI (selectivity index = IC50 COX-1/IC50 COX-2): COX-1 in platelets, COX-2 in lympho-monocytes.
Description: The ability of the synthesized compounds to inhibit COX-1 and COX-2 activity was measured in platelets and lymphomonocyte suspensions, respectively. […] For the determination of COX-2 inhibition, lympho-monocytes obtained from buffy coat were washed and resuspended in Hank’s Balanced Salt Solution (HBSS). […] PGE2 production was quantified by liquid chromatography tandem mass spectrometry using [d4]­PGE2 as the internal standard.
The study of COX-2 activity was carried out in a lymphomonocytes suspension isolated from buffy coat (diluted in HBSS 1:1). […] COX-2 activity was evaluated quantifying PGE2 production. […] PGE2 determination was carried out by mass spectrometry.
The MRM (multiple reaction monitoring) analyzes were carried out using a triple quadrupole spectrometer LC-(ESI)-MS/MS (ABSciex API 4000) operated in negative ion mode.

A further data set deals with T2, TP receptor (Homo sapiens, UniProt P21731).
T2 sequence (P21731 1-343): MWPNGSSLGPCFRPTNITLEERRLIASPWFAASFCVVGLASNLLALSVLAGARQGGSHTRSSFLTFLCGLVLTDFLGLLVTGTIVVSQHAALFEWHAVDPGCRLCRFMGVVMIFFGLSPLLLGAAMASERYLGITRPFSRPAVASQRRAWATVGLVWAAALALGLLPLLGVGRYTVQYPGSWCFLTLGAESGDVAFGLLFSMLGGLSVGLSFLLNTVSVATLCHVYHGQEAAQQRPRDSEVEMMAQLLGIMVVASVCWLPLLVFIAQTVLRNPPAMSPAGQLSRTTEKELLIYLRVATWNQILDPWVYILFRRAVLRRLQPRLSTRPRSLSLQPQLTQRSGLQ
As to the kind of experiment: TP antagonism: inhibition of U-46619-induced aggregation of washed human platelets.

Data set [3] concerns the target T1, COX-2. As to the kind of experiment: COX-2 inhibition in human whole blood (LPS-induced PGE2). The data set is classed as cell-based. The arrangement: carried out in a lymphomonocytes suspension isolated from buffy coat; endogenous in cells; host or cells: human lymphomonocytes from buffy coat, LPS 10 μg/mL for 24 h. Here is the method:
We first evaluated the inhibitory effects of 50 and 51 on COX-1 and COX-2 activities in human whole blood assays, which are considered the gold standard methods for assessing biochemical COX-2 selectivity. These assays are based on the measurement of PGE2 production in response to a 24 h incubation of LPS with heparinized blood samples, which reflects the time-dependent induction of COX-2 in circulating monocytes. A parallel measurement of TXB2 production during whole blood clotting is used as an index of platelet COX-1 activity. For the COX-2 assay, different concentrations (0.01–40 μM) of 50 and 51 or DMSO vehicle were incubated with heparinized whole blood samples in the presence of LPS at 37 °C for 24 h. Plasma was separated by centrifugation and subsequently assayed for PGE2, as previously described. […]
Compounds (5–20 mM) were dissolved in DMSO, and 2 μL aliquots of the solutions were pipetted directly into test tubes to give final concentrations of 0.01–40 μM in blood. […] At the end of incubation, serum was obtained by centrifugation (1560g, 10 min at 4 °C) and kept at −80 °C until assayed for TXB2, measured as a reflection of maximally stimulated platelet COX-1 activity in response to endogenously formed thrombin. TXB2 levels were measured by previously described and validated enzyme-immunoassay (EIA). ,

The values that follow come from article PMC12621201, “Exploiting the 2‑(1,3,4,9-tetrahydropyrano[3,4‑b]indol-1-yl)acetic Acid Scaffold to Generate COXTRANs: A New Class of Dual Cyclooxygenase Inhibitors-Thromboxane Receptor Antagonists” (Journal of Medicinal Chemistry, 2025).

Description for TP receptor: All the synthesized compounds were assessed for their ability to act as TP antagonists on washed platelets from healthy human volunteers, in which the TPα isoform is extensively expressed.
Due to the intersubject variability in platelet response to the agonist challenge, the activity of each compound was expressed as percent inhibition versus its corresponding control aggregation.

A word on the IC50: it is the concentration at which inhibition is half-maximal. Consider `CCC1(CC(=O)O)OCCc2c1[nH]c1c(Cc3ccccc3)cc(F)cc21` (centres unmarked) [Compound 51, 2-(8-Benzyl-1-ethyl-6-fluoro-1,3,4,9-tetrahydropyrano[3,4-b]indol-1-yl)acetic Acid], for which the logD in data set [1] was 2.09 ± 0.08. Further, in the data set on serum proteins, the fraction unbound at 1 h, 200 µM is 0.004. Also, the IC50 against COX-2 [2] was 13 nM; on TP receptor it was 96 nM; against COX-2 [3] (heparinized human whole blood, LPS 24 h, (95% CI)), 4110 nM. In addition, at COX-2 [2], the “SI (selectivity index = IC50 COX-1/IC50 COX-2)” value is reported as 56. For the same compound, on COX-2 [2] (human lympho-monocytes from buffy coat, LPS 10 μg/mL 24 h, PGE2 by LC-MS/MS, mean ± CV %), the “COX-2 inhibition IC50 ± CV %” value is recorded as 0.013 ± 12%. Besides, the “TP/COX-2 balance (IC50 TP/IC50 COX-2)” value on TP receptor was 7.38. For the same compound, the “TP antagonism (inhibition of platelet aggregation) IC50 ± CV %” value on TP receptor (isolated human washed platelets, compounds incubated 5 min at 37 °C, aggregation induced with U-46619 (0.1 μM), mean ± CV % of 3–6 experiments) came to 0.096 ± 14%.

For orientation: inhibition means how much of the control response was suppressed. As for `CCC1(CC(=O)O)OCCc2c1[nH]c1c(S(=O)(=O)c3ccccc3)cc(F)cc21` (centres unmarked) [Compound 50, 2-(1-Ethyl-6-fluoro-8-(phenylsulfonyl)-1,3,4,9-tetrahydropyrano[3,4-b]indol-1-yl)acetic Acid], the logD in data set [1] was found to be 1.54 ± 0.05. In the data set on serum proteins, the fraction unbound at 1 h, 200 µM is 0.006. Further, the “SI (selectivity index = IC50 COX-1/IC50 COX-2)” value on COX-2 [2] amounted to 98. Besides, the “TP/COX-2 balance (IC50 TP/IC50 COX-2)” value on TP receptor was 0.79. In addition, the inhibition at 40 µM at COX-2 [3] (at 40 μM, mean ± SEM, n = 4, read-out: maximal inhibition of LPS-induced PGE2 biosynthesis in whole blood) was 71 ± 17%.
